Literature values in US10695287B2, “AMPK agonist topical medication for the treatment of certain specific medical conditions, methods of use thereof and wound dressing employing the same” (CERSCI THERAPEUTICS, INC., priority 2015, dated 2020).

Test system: AMPK
Settings: topical administration; animal model (rodents); literature (Price et al. 2013; Tillu et al. 2012)

**Q.** Which mitigation of pain does the source give for `Oc1ccc(C=Cc2cc(O)cc(O)c2)cc1` [resveratrol] here?
**A.** has shown efficacy in mitigation of pain
